Experiments:
[1] = tested on: HEK293T-Gα16gust44 cells transfected with empty vector (mock); assay: Calcium imaging assay (FLIPR), empty vector control (mock); assay type: cell-based
Experimental: This set of bile acids was chosen because of their commercial availability in high purities, their diversity within the class of bile acids and their previous detection and quantitation in human blood. Stock solutions were prepared in DMSO.
As basal growth medium for the HEK293T-Gα16gust44 cell line[17],[59] served Dulbecco’s modified eagle medium (DMEM) (Thermo Fisher Scientific, Darmstadt, Germany) supplemented with 10 % fetal bovine serum (Sigma-Aldrich, Steinheim, Germany), 2 mM L-glutamine (Sigma-Aldrich, Steinheim, Germany), 100 units/ml penicillin (Sigma Aldrich, Steinheim, Germany) and 100 µg/ml streptomycin (Sigma Aldrich, Steinheim, Germany). Growth conditions were 37 °C, 5 % CO2 and saturated air-humidity[60].
HEK293T-Gα16gust44 cells were seeded on poly-D-lysine (10 µg/ml) coated 96-well plates to reach a confluence of 40-60 % the next day. For transient transfection 150 ng of plasmid DNA containing the receptor of interest and 0.3 µl lipofectamine 2000 (Thermo Fisher Scientific, Darmstadt, Germany) per well were used and transfection took place according to the manual of lipofectamine 2000. […] The empty vector DNA (mock) was transfected as negative control[14],[41].
Cells were loaded using the calcium-sensitive fluorescent dye Fluo-4-AM (Abcam, Cambridge, Great Britain) in the presence of 2.5 mM probenecid (Sigma-Aldrich, Steinheim, Germany) the day after transfection[13],[41]. 1 h after loading, cells were washed with C1 buffer using a BioTek Cell Washer, incubated in the dark for half an hour and washed again. For automated agonist application and measurement of fluorescence changes, a FLIPR^TETRA device (Molecular Devices, San José, United States) was used. Viability of cells was tested by application of 100 nM Somatostatin 14 (Bachem, Bubendorf, Switzerland)[42].
Measured data were negative control corrected by subtracting the signal of the mock-transfected cells and exported to Microsoft Excel using the FLIPR software ScreenWorks 4.2. In Microsoft Excel software, standardization of maximum fluorescence intensities to the basal fluorescence and normalization to the buffer-only control was done to calculate the relative fluorescence changes (ΔF/F).
Initial screening experiments performed in duplicate wells were confirmed by at least one replication and representative traces were selected for display. All dose-response relationships were determined by three independent experiments (biological replicates) performed in duplicates (technical replicates). Threshold concentrations, defined as lowest substance concentrations leading to statistically significant elevated fluorescence changes in receptor-transfected cells compared with empty vector-transfected cells, were determined using SigmaPlot with Student’s t-test to evaluate statistical significance (p < 0.01).

[2] = tested on: T2R02 of Latimeria chalumnae; parameters: method as in PMID 33355666; conditions: cited from earlier work
[3] = Mock, sheet TAS2R4, conc. 0,01 mM
[4] = Mock, sheet TAS2R4, conc. 0,03 mM
[5] = Mock, sheet TAS2R4, conc. 0,0003 mM
[6] = Mock, sheet TAS2R4, conc. 0,001 mM
[7] = Mock, sheet Tas2r108, conc. 0,01 mM
[8] = Mock, sheet Tas2r108, conc. 0,03 mM
[9] = Mock, sheet Tas2r108, conc. 0,00003 mM
[10] = Mock, sheet Tas2r108, conc. 0,0001 mM
[11] = Mock, sheet Tas2r108, conc. 0,0003 mM
[12] = Mock, sheet Tas2r108, conc. 0,001 mM
[13] = Mock, sheet Tas2r108, conc. 0,003 mM
[14] = conc. 0,01 mM, Mock (sheet TAS2R1)
[15] = conc. 0,03 mM, Mock (sheet TAS2R1)
[16] = conc. 0,0003 mM, Mock (sheet TAS2R1)
[17] = conc. 0,001 mM, Mock (sheet TAS2R1)
[18] = conc. 0,003 mM, Mock (sheet TAS2R1)

Structure (SMILES): C[C@H](CCC(=O)O)[C@H]1CC[C@H]2[C@@H]3CC[C@@H]4C[C@H](O)CC[C@]4(C)[C@H]3C[C@H](O)[C@]12C [Deoxycholic Acid, deoxycholic acid]
- Δ F/F ([1]; Mock (sheet Tas2r123), conc. 0,01 mM): -0.0008829
- Δ F/F ([1]; Mock (sheet Tas2r123), conc. 0,03 mM): -0.0003165
- Δ F/F ([1]; Mock (sheet Tas2r123), conc. 0,0001 mM): 0.00132
- Δ F/F ([1]; Mock (sheet Tas2r123), conc. 0,0003 mM): -0.002173
- Δ F/F ([1]; Mock (sheet Tas2r123), conc. 0,001 mM): -0.000706
- Δ F/F ([1]; Mock (sheet Tas2r123), conc. 0,003 mM): -0.0005125
- Δ F/F [1, 3]: 0.0004181
- Δ F/F [1, 4]: 0.001864
- Δ F/F [1, 5]: 0.0005365
- Δ F/F [1, 6]: 0.0001116
- Δ F/F ([1]; Mock, sheet TAS2R4, conc. 0,003 mM): 0.0001746
- Δ F/F ([1]; Mock, sheet Tas2r105, conc. 0,01 mM): -0.01259
- Δ F/F ([1]; Mock, sheet Tas2r105, conc. 0,03 mM): -0.004122
- Δ F/F ([1]; Mock, sheet Tas2r105, conc. 0,00003 mM): -0.01446
- Δ F/F ([1]; Mock, sheet Tas2r105, conc. 0,0001 mM): -0.0178
- Δ F/F ([1]; Mock, sheet Tas2r105, conc. 0,0003 mM): -0.01787
- Δ F/F ([1]; Mock, sheet Tas2r105, conc. 0,001 mM): -0.0148
- Δ F/F ([1]; Mock, sheet Tas2r105, conc. 0,003 mM): -0.01449
- Δ F/F [1, 7]: -0.006813
- Δ F/F [1, 8]: -0.0003425
- Δ F/F [1, 9]: -0.01113
- Δ F/F [1, 10]: -0.01772
- Δ F/F [1, 11]: -0.01462
- Δ F/F [1, 12]: -0.01703
- Δ F/F [1, 13]: -0.01481
- Δ F/F [1, 14]: -0.0008034
- Δ F/F [1, 15]: -0.0003771
- Δ F/F [1, 16]: -0.002238
- Δ F/F [1, 17]: -0.001593
- Δ F/F [1, 18]: -0.0004081
- Activation of T2R02 [2]: activate

Structure (SMILES): C[C@H](CCC(=O)NCCS(=O)(=O)O)[C@H]1CC[C@H]2[C@@H]3CC[C@@H]4C[C@H](O)CC[C@]4(C)[C@H]3CC[C@]12C [Taurolithocholic Acid, taurolithocholic acid]
- Δ F/F ([1]; Mock (sheet Tas2r144), conc. 0,01 mM): 0.0005692
- Δ F/F ([1]; Mock (sheet Tas2r144), conc. 0,1 mM): 0.004595
- Δ F/F ([1]; Mock (sheet Tas2r144), conc. 0,03 mM): 0.0003601
- Δ F/F ([1]; Mock (sheet Tas2r144), conc. 0,00003 mM): 0.006114
- Δ F/F ([1]; Mock (sheet Tas2r144), conc. 0,0001 mM): 0.006504
- Δ F/F ([1]; Mock (sheet Tas2r144), conc. 0,0003 mM): 0.0008548
- Δ F/F ([1]; Mock (sheet Tas2r144), conc. 0,001 mM): 0.004624
- Δ F/F ([1]; Mock (sheet Tas2r144), conc. 0,003 mM): 0.001997
- Δ F/F [1, 3]: -0.008514
- Δ F/F ([1]; Mock, sheet TAS2R4, conc. 0,1 mM): -0.00794
- Δ F/F [1, 4]: -0.01099
- Δ F/F ([1]; Mock, sheet TAS2R4, conc. 0,000001 mM): -0.003137
- Δ F/F ([1]; Mock, sheet TAS2R4, conc. 0,000003 mM): -0.007155
- Δ F/F ([1]; Mock, sheet TAS2R4, conc. 0,00001 mM): -0.00504
- Δ F/F ([1]; Mock, sheet TAS2R4, conc. 0,00003 mM): -0.003977
- Δ F/F ([1]; Mock, sheet TAS2R4, conc. 0,0001 mM): -0.003234
- Δ F/F [1, 5]: -0.004056
- Δ F/F [1, 6]: -0.007019
- Δ F/F ([1]; Mock, sheet TAS2R14, conc. 0,01 mM): -0.03147
- Δ F/F ([1]; Mock, sheet TAS2R14, conc. 0,00001 mM): -0.004277
- Δ F/F ([1]; Mock, sheet TAS2R14, conc. 0,00003 mM): -0.0006944
- Δ F/F ([1]; Mock, sheet TAS2R14, conc. 0,0001 mM): -0.01329
- Δ F/F ([1]; Mock, sheet TAS2R14, conc. 0,0003 mM): -0.01832
- Δ F/F ([1]; Mock, sheet TAS2R14, conc. 0,001 mM): -0.01976
- Δ F/F ([1]; Mock, sheet TAS2R14, conc. 0,003 mM): -0.0246
- Δ F/F ([1]; Mock, sheet TAS2R46, conc. 0,01 mM): -0.02971
- Δ F/F ([1]; Mock, sheet TAS2R46, conc. 0,1 mM): -0.009753
- Δ F/F ([1]; Mock, sheet TAS2R46, conc. 0,03 mM): -0.03052
- Δ F/F ([1]; Mock, sheet TAS2R46, conc. 0,0001 mM): -0.0128
- Δ F/F ([1]; Mock, sheet TAS2R46, conc. 0,0003 mM): -0.01683
- Δ F/F ([1]; Mock, sheet TAS2R46, conc. 0,001 mM): -0.02076
- Δ F/F ([1]; Mock, sheet TAS2R46, conc. 0,003 mM): -0.0306
- Δ F/F [1, 7]: -0.02695
- Δ F/F ([1]; Mock, sheet Tas2r108, conc. 0,1 mM): -0.01465
- Δ F/F [1, 8]: -0.03132
- Δ F/F ([1]; Mock, sheet Tas2r108, conc. 0,00001 mM): -0.01948
- Δ F/F [1, 9]: -0.01658
- Δ F/F [1, 10]: -0.01596
- Δ F/F [1, 11]: -0.01689
- Δ F/F [1, 12]: -0.02887
- Δ F/F [1, 13]: -0.03792
- Δ F/F [1, 14]: 0.0009651
- Δ F/F [1, 15]: -0.0002852
- Δ F/F ([1]; conc. 0,000001 mM, Mock (sheet TAS2R1)): 0.0003466
- Δ F/F ([1]; conc. 0,000003 mM, Mock (sheet TAS2R1)): 0.0002774
- Δ F/F ([1]; conc. 0,00001 mM, Mock (sheet TAS2R1)): -0.0001438
- Δ F/F ([1]; conc. 0,00003 mM, Mock (sheet TAS2R1)): 0.0007699
- Δ F/F ([1]; conc. 0,0001 mM, Mock (sheet TAS2R1)): -0.00173
- Δ F/F [1, 16]: 0.00111
- Δ F/F [1, 17]: 0.001414
- Δ F/F [1, 18]: -0.000959
- Activation of T2R02 [2]: activate

From article PMC10247784, “Physiological activation of human and mouse bitter taste receptors by bile acids” (Communications Biology, 2023)
